Measurements as given in BindingDB's records for patent US11919896 (Zhuhai United Laboratories Co., 2024).

Assays:
Experiment in all cases: In Vitro Test of Activities of Jak1, Jak2, Jak3, Tyk2 Kinases
[1] = molecular target: Non-receptor tyrosine-protein kinase TYK2 (Homo sapiens, UniProt P29597)
[2] = molecular target: Tyrosine-protein kinase JAK1 (Homo sapiens, UniProt P23458)
[3] = molecular target: Tyrosine-protein kinase JAK2 (Homo sapiens, UniProt O60674)
[4] = molecular target: T1, Tyrosine-protein kinase JAK3 (Homo sapiens, UniProt P52333)
T1 sequence (P52333 whole entry): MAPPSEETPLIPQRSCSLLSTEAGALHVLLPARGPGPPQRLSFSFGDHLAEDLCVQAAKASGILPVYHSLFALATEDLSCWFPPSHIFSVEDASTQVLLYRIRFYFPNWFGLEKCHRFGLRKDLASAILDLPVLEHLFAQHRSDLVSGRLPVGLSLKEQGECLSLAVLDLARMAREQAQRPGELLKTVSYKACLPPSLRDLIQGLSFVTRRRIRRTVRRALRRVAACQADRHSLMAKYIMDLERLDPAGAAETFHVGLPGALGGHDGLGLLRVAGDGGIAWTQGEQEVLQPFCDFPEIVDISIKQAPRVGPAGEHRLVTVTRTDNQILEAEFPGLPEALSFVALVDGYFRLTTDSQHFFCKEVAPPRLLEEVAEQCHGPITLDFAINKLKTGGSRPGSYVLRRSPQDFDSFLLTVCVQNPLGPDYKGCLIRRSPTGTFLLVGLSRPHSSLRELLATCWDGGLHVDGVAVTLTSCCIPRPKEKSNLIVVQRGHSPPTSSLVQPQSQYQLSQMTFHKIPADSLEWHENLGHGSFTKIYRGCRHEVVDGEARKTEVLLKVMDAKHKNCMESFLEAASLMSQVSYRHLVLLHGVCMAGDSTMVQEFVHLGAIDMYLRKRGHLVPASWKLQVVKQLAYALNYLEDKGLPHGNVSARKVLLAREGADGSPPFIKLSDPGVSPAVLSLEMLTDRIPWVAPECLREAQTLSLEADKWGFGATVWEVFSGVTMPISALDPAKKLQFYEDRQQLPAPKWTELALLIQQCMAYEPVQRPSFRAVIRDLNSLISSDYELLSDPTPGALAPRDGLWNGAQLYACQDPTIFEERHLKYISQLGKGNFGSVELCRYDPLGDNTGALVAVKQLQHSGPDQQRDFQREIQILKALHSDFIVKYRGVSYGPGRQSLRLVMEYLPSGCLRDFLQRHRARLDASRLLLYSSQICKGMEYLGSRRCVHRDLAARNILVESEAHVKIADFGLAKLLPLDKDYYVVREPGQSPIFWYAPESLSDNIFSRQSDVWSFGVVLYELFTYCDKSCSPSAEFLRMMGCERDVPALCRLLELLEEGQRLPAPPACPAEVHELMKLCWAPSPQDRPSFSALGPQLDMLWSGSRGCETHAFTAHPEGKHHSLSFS

Tyrosine-protein kinase JAK1, sequence (P23458 whole entry): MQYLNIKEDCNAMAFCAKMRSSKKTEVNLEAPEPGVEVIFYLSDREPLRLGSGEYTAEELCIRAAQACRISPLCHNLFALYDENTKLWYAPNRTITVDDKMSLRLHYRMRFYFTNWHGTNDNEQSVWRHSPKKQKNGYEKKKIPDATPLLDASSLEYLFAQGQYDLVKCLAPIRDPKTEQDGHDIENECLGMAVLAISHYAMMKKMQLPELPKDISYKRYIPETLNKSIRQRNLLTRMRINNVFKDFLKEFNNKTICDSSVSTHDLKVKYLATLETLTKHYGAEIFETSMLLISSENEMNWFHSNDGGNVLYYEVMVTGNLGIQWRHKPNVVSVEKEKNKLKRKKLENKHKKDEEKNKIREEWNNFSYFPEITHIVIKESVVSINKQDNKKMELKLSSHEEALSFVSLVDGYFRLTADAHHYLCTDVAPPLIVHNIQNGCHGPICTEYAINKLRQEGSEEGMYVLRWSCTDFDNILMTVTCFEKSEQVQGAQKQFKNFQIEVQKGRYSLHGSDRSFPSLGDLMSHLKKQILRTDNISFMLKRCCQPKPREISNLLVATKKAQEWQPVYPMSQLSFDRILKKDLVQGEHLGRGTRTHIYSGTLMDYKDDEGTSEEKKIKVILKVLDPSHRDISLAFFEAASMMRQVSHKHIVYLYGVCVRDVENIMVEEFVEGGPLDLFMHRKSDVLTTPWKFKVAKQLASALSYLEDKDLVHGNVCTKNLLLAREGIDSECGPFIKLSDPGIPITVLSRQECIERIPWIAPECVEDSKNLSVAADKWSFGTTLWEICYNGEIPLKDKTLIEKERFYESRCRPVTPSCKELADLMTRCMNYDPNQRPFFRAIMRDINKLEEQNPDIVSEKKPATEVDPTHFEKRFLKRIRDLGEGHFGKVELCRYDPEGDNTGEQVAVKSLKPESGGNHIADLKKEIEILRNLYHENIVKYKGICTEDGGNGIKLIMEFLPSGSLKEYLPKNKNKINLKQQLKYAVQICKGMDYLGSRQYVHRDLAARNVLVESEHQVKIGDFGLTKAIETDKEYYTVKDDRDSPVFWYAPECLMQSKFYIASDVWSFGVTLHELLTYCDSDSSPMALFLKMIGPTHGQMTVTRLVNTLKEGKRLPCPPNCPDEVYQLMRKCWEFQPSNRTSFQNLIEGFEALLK
Non-receptor tyrosine-protein kinase TYK2, sequence (P29597 whole entry): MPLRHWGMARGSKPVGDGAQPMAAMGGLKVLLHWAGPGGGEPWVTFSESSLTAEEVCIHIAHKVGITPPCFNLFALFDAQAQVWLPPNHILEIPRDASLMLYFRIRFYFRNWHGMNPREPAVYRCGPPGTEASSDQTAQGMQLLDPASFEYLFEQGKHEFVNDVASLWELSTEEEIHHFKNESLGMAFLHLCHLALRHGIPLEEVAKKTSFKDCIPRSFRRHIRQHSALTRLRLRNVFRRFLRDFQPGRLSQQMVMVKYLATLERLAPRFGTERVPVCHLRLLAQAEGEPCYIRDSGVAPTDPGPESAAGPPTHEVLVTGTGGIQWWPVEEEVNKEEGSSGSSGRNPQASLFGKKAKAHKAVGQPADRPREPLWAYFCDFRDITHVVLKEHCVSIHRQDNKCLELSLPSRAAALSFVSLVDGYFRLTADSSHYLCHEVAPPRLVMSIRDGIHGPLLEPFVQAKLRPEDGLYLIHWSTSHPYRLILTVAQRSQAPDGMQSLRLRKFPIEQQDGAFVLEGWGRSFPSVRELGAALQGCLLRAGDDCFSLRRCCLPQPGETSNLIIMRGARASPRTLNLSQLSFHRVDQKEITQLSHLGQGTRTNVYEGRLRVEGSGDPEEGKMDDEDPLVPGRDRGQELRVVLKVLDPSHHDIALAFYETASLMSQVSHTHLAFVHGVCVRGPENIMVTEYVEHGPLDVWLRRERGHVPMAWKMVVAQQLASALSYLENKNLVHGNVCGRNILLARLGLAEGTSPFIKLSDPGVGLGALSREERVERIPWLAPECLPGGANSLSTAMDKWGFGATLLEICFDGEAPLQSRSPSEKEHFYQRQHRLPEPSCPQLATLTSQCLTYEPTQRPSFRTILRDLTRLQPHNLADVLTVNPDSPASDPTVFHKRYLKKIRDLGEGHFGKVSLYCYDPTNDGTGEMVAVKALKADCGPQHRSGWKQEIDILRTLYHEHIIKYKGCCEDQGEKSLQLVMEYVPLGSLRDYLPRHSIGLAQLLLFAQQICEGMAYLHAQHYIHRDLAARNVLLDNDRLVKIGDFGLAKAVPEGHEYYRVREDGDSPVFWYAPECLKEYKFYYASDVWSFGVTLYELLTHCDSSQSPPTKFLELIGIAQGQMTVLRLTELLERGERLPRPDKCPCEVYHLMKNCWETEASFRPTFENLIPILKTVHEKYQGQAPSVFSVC
Tyrosine-protein kinase JAK2, sequence (O60674 whole entry): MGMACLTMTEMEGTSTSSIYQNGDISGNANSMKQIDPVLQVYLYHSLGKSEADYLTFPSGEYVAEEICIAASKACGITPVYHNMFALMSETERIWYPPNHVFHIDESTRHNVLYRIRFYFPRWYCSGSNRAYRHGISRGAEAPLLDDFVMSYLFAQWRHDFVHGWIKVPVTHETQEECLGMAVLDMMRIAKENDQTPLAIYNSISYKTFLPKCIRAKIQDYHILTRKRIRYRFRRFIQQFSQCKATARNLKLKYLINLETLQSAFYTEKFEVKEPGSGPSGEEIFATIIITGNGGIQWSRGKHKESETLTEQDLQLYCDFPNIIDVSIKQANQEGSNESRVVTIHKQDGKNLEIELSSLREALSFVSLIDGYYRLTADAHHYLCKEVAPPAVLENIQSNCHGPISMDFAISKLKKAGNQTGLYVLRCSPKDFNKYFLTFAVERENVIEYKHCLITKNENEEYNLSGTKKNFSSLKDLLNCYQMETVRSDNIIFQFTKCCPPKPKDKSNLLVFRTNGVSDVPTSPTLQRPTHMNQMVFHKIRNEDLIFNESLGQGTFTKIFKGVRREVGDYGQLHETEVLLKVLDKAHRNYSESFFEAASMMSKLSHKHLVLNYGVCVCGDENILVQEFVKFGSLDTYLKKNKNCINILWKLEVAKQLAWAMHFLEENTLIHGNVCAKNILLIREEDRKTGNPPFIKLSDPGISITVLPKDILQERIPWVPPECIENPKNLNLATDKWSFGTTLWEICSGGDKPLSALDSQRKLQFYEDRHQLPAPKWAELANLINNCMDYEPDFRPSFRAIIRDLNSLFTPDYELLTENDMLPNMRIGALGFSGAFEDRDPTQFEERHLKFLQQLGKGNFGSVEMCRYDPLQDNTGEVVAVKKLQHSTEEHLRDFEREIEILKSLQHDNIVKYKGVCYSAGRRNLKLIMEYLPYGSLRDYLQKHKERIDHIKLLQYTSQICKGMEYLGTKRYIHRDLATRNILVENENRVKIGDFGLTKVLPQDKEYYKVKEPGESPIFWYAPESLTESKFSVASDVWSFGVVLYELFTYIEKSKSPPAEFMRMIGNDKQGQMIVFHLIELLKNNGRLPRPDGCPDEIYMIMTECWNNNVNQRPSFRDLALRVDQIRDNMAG

IC50 [1] [nM]	IC50 [2] [nM]	IC50 [3] [nM]	IC50 [4] [nM]	SMILES
109	60	1380	> 10000	N#CCC(=O)N1CC2(CCC(c3cccc4nc(NC(=O)[C@H]5CC5(F)F)nn34)CC2)C1 [US11919896, Compound 8-8]
1190	253	982	> 10000	O=C(Nc1nc2cccc(C3CCC4(CC3)CN(C(=O)C3(F)CC3)C4)n2n1)[C@@H]1CC1(F)F [US11919896, Compound 9-4]
175	224	624		N#CCC(=O)N1CC2(CCC(c3cccc4nc(NC(=O)C5CC5(F)F)nn34)CC2)C1 (stereo not drawn) [US11919896, Compound 9-5]

The next lines start with the molecule.

SMILES	IC50 [1] [nM]	IC50 [2] [nM]	IC50 [3] [nM]	IC50 [4] [nM]
O=C(Nc1nc2cccc(C3(F)CCC4(CC3)CN(C(=O)CC(F)(F)F)C4)n2n1)C1CC1 [US11919896, Compound 4-7]	194	436	7690	> 10000
O=C(Nc1nc2cccc(C3(F)CCC4(CC3)CN(C(=O)CC(F)F)C4)n2n1)C1CC1 [US11919896, Compound 4-8]	> 10000	244	3710	364
O=C(Nc1nc2cccc(C3CCC4(CC3)CN(C(=O)C3(F)CC3)C4)n2n1)[C@H]1CC1(F)F [US11919896, Compound 8-7]	1030	63	5460	> 10000
